Like-named read-outs stand apart in the source and are kept apart here.
Test system: SARS-CoV-2 strain USA-WA1/2020
Experiment: microbe, parasite or virus in culture
Type: cell-based
Details: read-out: EC50, uM (Hela)
[1] = Severe acute respiratory syndrome coronavirus 2, HeLa-ACE2, 24 h, HeLa-ACE2 cells, SARS-CoV-2 infection, 24 h
[2] = Severe acute respiratory syndrome coronavirus 2, HeLa-ACE2, 24 h, HeLa-ACE2 cells, SARS-CoV-2 infection, 24 h, class symbols

Row | Structure (SMILES) | EC50 [1] [µM] | EC50 [2] [µM] | further results
1 | O=C1NCC[C@H]1C[C@H](NC(=O)[C@@H]1[C@H]2CCC[C@H]2CN1C(=O)[C@@H](O)c1ccccc1)C(=O)COC(F)(F)F [Compound 417, (1S,3aR,6aS)-2-((S)-2-hydroxy-2-phenylacetyl)-N-((S)-3-oxo-1-((S)-2-oxopyrrolidin-3-yl)-4-(trifluoromethoxy)butan-2-yl)octahydrocyclo-penta[c]pyrrole-1-carboxamide] | < 0.05 |  | 
2 | CC(C)C[C@@H](O)C(=O)N1CC(F)(F)C[C@H]1C(=O)N[C@@H](C[C@@H]1CCNC1=O)C(=O)COC(F)(F)F [Compound 751, (S)-4,4-difluoro-1-((R)-2-hydroxy-4-methylpentanoyl)-N-((S)-3-oxo-1-((S)-2-oxopyrrolidin-3-yl)-4-(trifluoromethoxy)butan-2-yl)pyrrolidine-2-carboxamide] | 0.05 to 0.2 |  | 
3 | CC(C)(F)C[C@@H](O)C(=O)N1CC2(CC2)C[C@H]1C(=O)N[C@@H](C[C@@H]1CCNC1=O)C(=O)COC(F)(F)F [Compound 754, (S)-5-((R)-4-fluoro-2-hydroxy-4-methylpentanoyl)-N-((S)-3-oxo-1-((S)-2-oxopyrrolidin-3-yl)-4-(trifluoromethoxy)butan-2-yl)-5-azaspiro[2.4]heptane-6-carboxamide] | 0.05 to 0.2 |  | 
4 | CC(C)C[C@H](NC(=O)C(=O)Nc1ccccc1)C(=O)N[C@@H](C[C@@H]1CCNC1=O)C(=O)COP(=O)(c1ccccc1)c1ccccc1 [Compound 73, (S)-3-((S)-4-methyl-2-(2-oxo-2-(phenylamino)acetamido)-pentanamido)-2-oxo-4-((S)-2-oxopyrrolidin-3-yl)butyl-diphenylphosphinate] |  |  | EC50 (Severe acute respiratory syndrome coronavirus 2, HeLa-ACE2, 24 h): 0.05 to 0.2 µM
5 | [2H]C(C)(C)C(=O)N1CC2(CC2)C[C@H]1C(=O)N[C@@H](C[C@@H]1CCNC1=O)C(=O)COC(F)(F)F [Compound 738, (S)-5-(2-methylpropanoyl-2-d)-N-((S)-3-oxo-1-((S)-2-oxopyrrolidin-3-yl)-4-(trifluoromethoxy)butan-2-yl)-5-azaspiro[2.4]heptane-6-carboxamide] | 0.05 to 0.2 |  | 
6 | CC(C)C[C@H](NC(=O)c1cn2ccccc2n1)C(=O)N[C@@H](C[C@@H]1CCNC1=O)C(=O)COC(F)(F)F [Compound 202, N-((S)-4-methyl-1-oxo-1-(((S)-3-oxo-1-((S)-2-oxopyrrolidin-3-yl)-4-(trifluoromethoxy)butan-2-yl)amino)pentan-2-yl)imidazo[1,2-a]pyridine-2-carboxamide] |  | 0.05 to 0.2 | 
7 | CC(C)(C)NC(=O)C(=O)N1C[C@@H]2CCC[C@@H]2[C@H]1C(=O)N[C@@H](Cc1ccc[nH]c1=O)C(=O)COC(F)(F)F [Compound 574, (1S,3aR,6aS)-2-(2-(tert-butylamino)-2-oxoacetyl)-N-((S)-3-oxo-1-(2-oxo-1,2-dihydropyridin-3-yl)-4-(trifluoromethoxy)butan-2-yl)octahydrocyclo-penta[c]pyrrole-1-carboxamide] | 0.5 to 1 |  | 
8 | O=C(N[C@@H](C[C@@H]1CCNC1=O)C(=O)COC(F)(F)F)C(CC1CCOCC1)NC(=O)[C@H]1CCCO1 (stereo partly drawn) [Compound 298, (2R)-N-(1-oxo-1-(((S)-3-oxo-1-((S)-2-oxopyrrolidin-3-yl)-4-(trifluoromethoxy)butan-2-yl)amino)-3-(tetrahydro-2H-pyran-4-yl)propan-2-yl)tetrahydrofuran-2-carboxamide] |  | 0.5 to 1 | 
9 | Cn1ccc(NC(=O)C(=O)N2C[C@H]3[C@@H]([C@H]2C(=O)N[C@@H](C[C@@H]2CCNC2=O)C(=O)COC(F)(F)F)C3(C)C)n1 [Compound 535, (1R,2S,5S)-6,6-dimethyl-3-(2-((l-methyl-1H-pyrazol-3-yl)amino)-2-oxoacetyl)-N-((S)-3-oxo-1-((S)-2-oxopyrrolidin-3-yl)-4-(trifluoromethoxy)butan-2-yl)-3-azabicyclo-[3.1.0]hexane-2-carboxamide] | 0.05 to 0.2 |  | 
10 | CC(C)(C)[C@@H](O)C(=O)N1CC2(CC2)C[C@H]1C(=O)N[C@@H](C[C@@H]1CCNC1=O)C(=O)COC(F)(F)F [Compound 342, (S)-5-((R)-2-hydroxy-3,3-dimethylbutanoyl)-N-((S)-3-oxo-1-((S)-2-oxopyrrolidin-3-yl)-4-(trifluoromethoxy)butan-2-yl)-5-azaspiro[2.4]heptane-6-carboxamide] |  | 0.05 to 0.2 | 
11 | CC(C)C[C@H](NC(=O)C(=O)NC1CCCC(F)(F)C1)C(=O)N[C@@H](C[C@@H]1CCNC1=O)C(=O)COc1c(F)c(F)cc(F)c1F (stereo partly drawn) [Compound 94, Nl-(3,3-difluorocyclohexyl)-N2-((S)-4-methyl-1-oxo-1-(((S)-3-oxo-1-((S)-2-oxopyrrolidin-3-yl)-4-(2,3,5,6-tetrafluorophenoxy)butan-2-yl)amino)pentan-2-yl)oxalamide] |  | 0.05 to 0.2 | 
12 | CC[C@H](NC(=O)C1CC2(CC2)CO1)C(=O)N[C@@H](C[C@@H]1CCNC1=O)C(=O)COC(F)(F)F (stereo partly drawn) [Compound 294, N-((S)-1-oxo-1-(((S)-3-oxo-1-((S)-2-oxopyrrolidin-3-yl)-4-(trifluoromethoxy)butan-2-yl)amino)butan-2-yl)-5-oxaspiro[2.4]heptane-6-carboxamide] |  | < 0.05 | 
13 | Cc1ccccc1NC(=O)C(=O)N1CC2(CC2)C[C@H]1C(=O)N[C@@H](C[C@@H]1CCNC1=O)C(=O)COC(F)(F)F [Compound 527, (S)-N-((S)-3-oxo-1-((S)-2-oxopyrrolidin-3-yl)-4-(trifluoromethoxy)butan-2-yl)-5-(2-oxo-2-(o-tolylamino)acetyl)-5-azaspiro[2.4]heptane-6-carboxamide] | < 0.05 |  | 
14 | CC(C)C[C@H](NC(=O)C(=O)Nc1ccccc1F)C(=O)N[C@@H](C[C@@H]1CCNC1=O)C(=O)COc1c(F)ccc(F)c1F [Compound 132, N1-(2-fluorophenyl)-N2-((S)-4-methyl-1-oxo-1-(((S)-3-oxo-1-((S)-2-oxopyrrolidin-3-yl)-4-(2,3,6-trifluorophenoxy)butan-2-yl)amino)pentan-2-yl)oxalamide] |  | 0.05 to 0.2 | 
15 | CC(C)C[C@H](NC(=O)C(=O)Nc1ccccc1OC(F)F)C(=O)N[C@@H](C[C@@H]1CCNC1=O)C(=O)COc1c(F)c(F)cc(F)c1F [Compound 62, N1-(2-(difluoromethoxy)-phenyl)-N2-((S)-4-methyl-1-oxo-1-(((S)-3-oxo-1-((S)-2-oxopyrrolidin-3-yl)-4-(2,3,5,6-tetrafluorophenoxy)butan-2-yl)amino)pentan-2-yl)oxalamide] |  | < 0.05 | 
16 | CC(O)C(F)(F)C(=O)N1CC2(CC2)C[C@H]1C(=O)N[C@@H](C[C@@H]1CCNC1=O)C(=O)COC(F)(F)F (stereo partly drawn) [Compound 756, (6S)-5-(2,2-difluoro-3-hydroxybutanoyl)-N-((S)-3-oxo-1-((S)-2-oxopyrrolidin-3-yl)-4-(trifluoromethoxy)butan-2-yl)-5-azaspiro[2.4]heptane-6-carboxamide] | 0.05 to 0.2 |  | 
17 | O=C1NCC[C@H]1C[C@H](NC(=O)[C@@H]1[C@H]2CCC[C@H]2CN1C(=O)[C@H](O)c1ccc(F)cc1)C(=O)COC(F)(F)F [Compound 404, (1S,3aR,6aS)-2-((R)-2-(4-fluorophenyl)-2-hydroxyacetyl)-N-((S)-3-oxo-1-((S)-2-oxopyrrolidin-3-yl)-4-(trifluoromethoxy)butan-2-yl)octahydrocyclo-penta[c]pyrrole-1-carboxamide] | < 0.05 |  | 
18 | COc1cccc2[nH]c(C(=O)N[C@@H](CC(C)C)C(=O)N[C@@H](C[C@@H]3CCNC3=O)C(=O)COC(=O)c3c(Cl)cccc3Cl)cc12 [Compound 3, (S)-3-((S)-2-(4-methoxy-1H-indole-2-carboxamido)-4-methylpentanamido)-2-oxo-4-((S)-2-oxopyrrolidin-3-yl)butyl 2,6-dichlorobenzoate] |  |  | EC50 (HeLa-ACE2 cells, SARS-CoV-2 infection, 24 h, class symbols): 0.2 to 0.5 µM
19 | CC(C)C[C@H](NC(=O)C12CCC(CC1)O2)C(=O)N[C@@H](C[C@@H]1CCNC1=O)C(=O)COC(F)(F)F [Compound 309, N-((S)-4-methyl-1-oxo-1-(((S)-3-oxo-1-((S)-2-oxopyrrolidin-3-yl)-4-(trifluoromethoxy)butan-2-yl)amino)pentan-2-yl)-7-oxabicyclo [2.2.1]-heptane-1-carboxamide] |  | < 0.05 | 
20 | CC(C)C[C@@H](O)C(=O)N1CC2(CC2)C[C@H]1C(=O)N[C@@H](C[C@@H]1CCCNC1=O)C(=O)COc1c(F)c(F)c(F)c(F)c1F [Compound 779, (S)-5-((R)-2-hydroxy-4-methylpentanoyl)-N-((S)-3-oxo-1-((S)-2-oxopiperidin-3-yl)-4-(perfluorophenoxy)butan-2-yl)-5-azaspiro[2.4]heptane-6-carboxamide] | < 0.05 |  | 
21 | CC(C)C[C@H](NC(=O)C(=O)Nc1ccccc1C(F)(F)F)C(=O)N[C@@H](C[C@@H]1CCNC1=O)C(=O)COc1c(F)c(F)cc(F)c1F [Compound 32] |  | < 0.05 | 
22 | CC(C)C[C@H](NC(=O)C1Cc2ccccc2N1)C(=O)N[C@@H](C[C@@H]1CCNC1=O)C(=O)COC(F)(F)F (stereo partly drawn) [Compound 204, N-((S)-4-methyl-1-oxo-1-(((S)-3-oxo-1-((S)-2-oxopyrrolidin-3-yl)-4-(trifluoromethoxy)butan-2-yl)amino)pentan-2-yl)indoline-2-carboxamide] |  | 0.05 to 0.2 | 
23 | CC(C)C[C@H](NC(=O)C(=O)Nc1ccc2ccccc2c1)C(=O)N[C@@H](C[C@@H]1CCNC1=O)C(=O)COc1c(F)c(F)cc(F)c1F [Compound 34, N1-((S)-4-methyl-1-oxo-1-(((S)-3-oxo-1-((S)-2-oxopyrrolidin-3-yl)-4-(2,3,5,6-tetrafluorophenoxy)butan-2-yl)amino)pentan-2-yl)-N2-(naphthalen-2-yl)oxalamide] |  | 0.05 to 0.2 | 
24 | O=C(Nc1ccccc1Cl)C(=O)N[C@@H](CC1CCC(F)(F)CC1)C(=O)N[C@@H](C[C@@H]1CCNC1=O)C(=O)COc1c(F)c(F)cc(F)c1F [Compound 88, N1-(2-chlorophenyl)-N2-((S)-3-(4,4-difluorocyclohexyl)-1-oxo-1-(((S)-3-oxo-l-((S)-2-oxopyrrolidin-3-yl)-4-(2,3,5,6-tetrafluorophenoxy)butan-2-yl)amino)propan-2-yl)oxalamide] |  | 0.05 to 0.2 | 
